Here are results for twelve compounds from US9029377B2, “Platelet-activating factor receptor antagonists” (Merck Sharp & Dohme Corp., priority 2009, dated 2015).

pIC50: −log10 of the molar value.

In this assay the target is PAFR (Homo sapiens, UniProt P25105). Description: PAF Binding Assay (PAFR binding).
Chain of PAFR (P25105 whole entry): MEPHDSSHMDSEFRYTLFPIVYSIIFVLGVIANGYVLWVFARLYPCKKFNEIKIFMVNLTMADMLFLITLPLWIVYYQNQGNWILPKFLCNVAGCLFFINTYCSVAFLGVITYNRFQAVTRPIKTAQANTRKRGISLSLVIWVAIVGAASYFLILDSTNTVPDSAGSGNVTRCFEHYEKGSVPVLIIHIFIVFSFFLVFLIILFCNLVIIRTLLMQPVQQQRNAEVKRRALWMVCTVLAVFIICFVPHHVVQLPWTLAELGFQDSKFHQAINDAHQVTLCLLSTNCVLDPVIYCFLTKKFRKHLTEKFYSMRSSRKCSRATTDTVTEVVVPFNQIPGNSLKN
As for `CCCCOc1cc(F)c(S(=O)(=O)N[C@H]2CCC[C@@H](n3cnnc3C)C2)cc1F` [Compound 2Nae, 4-butoxy-2,5-difluoro-N-[(1S,3R)-3-(3-methyl-4H-1,2,4-triazol-4-yl)cyclohexyl]benzenesulfonamide], the pIC50 is 8.27.

With `CCc1cc(-c2ccc(OC(F)(F)F)cc2)ccc1S(=O)(=O)N[C@H]1CCC[C@@H](n2cnnc2)C1` [Compound 2b, 3-ethyl-N-[(1S,3R)-3-(4H-1,2,4-triazol-4-yl)cyclohexyl]-4′-(trifluoromethoxy)biphenyl-4-sulfonamide], the pIC50 is 8.44. The compound `CCc1cc(-c2c(OC)cccc2OC(F)(F)F)ccc1S(=O)(=O)N[C@H]1CCC[C@@H](n2cnnc2)C1` [Compound 2Aab, 3-ethyl-2′-methoxy-N-[(1S,3R)-3-(4H-1,2,4-triazol-4-yl)cyclohexyl]-6′-(trifluoromethoxy)biphenyl-4-sulfonamide] had a pIC50 of 7.27. For the compound `O=S(=O)(N[C@H]1CCC[C@@H](n2cnnc2)C1)c1c(F)cc(-c2noc(C3CC3)n2)cc1C1CC1` [Compound 2Sa, 2-cyclopropyl-4-(5-cyclopropyl-1,2,4-oxadiazol-3-yl)-6-fluoro-N-[(1S,3R)-3-(4H-1,2,4-triazol-4-yl)cyclohexyl]benzenesulfonamide], the pIC50 was 8.07.

As for `Cc1nncn1[C@H]1C[C@@H](NS(=O)(=O)c2ccc(OCCCCF)cc2)CC(F)(F)C1` [Compound 2Qad, N-[(1R,5S)-3,3-difluoro-5-(3-methyl-4H-1,2,4-triazol-4-yl)cyclohexyl]-4-(4-fluorobutoxy)-benzenesulfonamide], the pIC50 was 8.06. With `O=S(=O)(N[C@H]1CCC[C@@H](n2cnnc2)C1)c1cc(-c2ccc3nc(C(F)(F)F)nn3n2)cc(C(F)(F)F)c1` [Compound 3Aah, N-[(1S,3R)-3-(4H-1,2,4-triazol-4-yl)cyclohexyl]-3-(trifluoromethyl)-5-[2-(trifluoromethyl)[1,2,4]triazolo[1,5-b]pyridazin-6-yl]benzenesulfonamide], the pIC50 was 7.74. Regarding `CCc1cc(-c2ccccc2OC)ccc1S(=O)(=O)N[C@H]1CCC[C@@H](n2cnnc2)C1` [Compound 2As, 3-ethyl-2′-methoxy-N-[(1S,3R)-3-(4H-1,2,4-triazol-4-yl)cyclohexyl]biphenyl-4-sulfonamide], the pIC50 was 7.80. Compound `CCc1cc(-n2cnnc2C)ccc1S(=O)(=O)N[C@H]1CCC[C@@H](n2cnnc2)C1` [Compound 4b, 2-ethyl-4-(3-methyl-4H-1,2,4-triazol-4-yl)-N-[(1S,3R)-3-(4H-1,2,4-triazol-4-yl)cyclohexyl]benzenesulfonamide] gave a pIC50 of 5.01. With `CCc1cc(-c2cc(C(F)(F)F)cc(C(F)(F)F)c2)ccc1S(=O)(=O)N[C@H]1CCC[C@@H](n2cnnc2)C1` [Compound 2Abo, 3-ethyl-N-[(1S,3R)-3-(4H-1,2,4-triazol-4-yl)cyclohexyl]-3′,5′-bis(trifluoromethyl)biphenyl-4-sulfonamide] the figure was 7.89. `CCc1cc(-c2cnc3ccnn3c2)ccc1S(=O)(=O)N[C@H]1CCC[C@@H](n2cnnc2)C1` [Compound 2Aau, 2-ethyl-4-pyrazolo[1,5-a]pyrimidin-6-yl-N-[(1S,3R)-3-(4H-1,2,4-triazol-4-yl)cyclohexyl]benzenesulfonamide]: the pIC50 is 6.61. As to `CCc1cc(-c2noc(C3CC3)n2)ccc1S(=O)(=O)N[C@H]1CCC[C@@H](n2cnnc2C2CC2)C1` [Compound 2Ab, 4-(5-cyclopropyl-1,2,4-oxadiazol-3-yl)-2-ethyl-N-[(1S,3R)-3-(3-cycloropyl-4H-1,2,4-triazol-4-yl)cyclohexyl]benzenesulfonamide], the pIC50 is 8.49.

Consider `O=S(=O)(N[C@H]1CCC[C@@H](n2cnnc2)C1)c1ccc(-c2noc(C3CCC3)n2)cc1C1CC1` [Compound 2Kf, 4-(5-cyclobutyl-1,2,4-oxadiazol-3-yl)-2-cyclopropyl-N-[(1S,3R)-3-(4H-1,2,4-triazol-4-yl)cyclohexyl]benzenesulfonamide], for which the pIC50 is 8.55.
